The NIST ThermoML archive (doi:10.1021/je400188h)
± gives the expanded uncertainty stated by the source.

Conditions: Crystal; visual observation

Normal melting temperature: 177.00 ± 0.5 °C
Compound: O=C(O)[C@@H]1Cc2ccccc2N1 [(S)-indoline-2-carboxylic acid]
